Reference: patent US9868935B2, “Composition and method of stem cells for preservation of cardiac tissue” (CRIOESTAMINAL, SAÚDE E TECNOLOGIA, SA., priority 2012, dated 2018)

What was measured:
[1] = target: T1, peroxisome proliferator-activator receptor γ (PPAR γ) (Homo sapiens, UniProt P37231); conditions: literature studies; cited from earlier work
T1 sequence (P37231 1-505): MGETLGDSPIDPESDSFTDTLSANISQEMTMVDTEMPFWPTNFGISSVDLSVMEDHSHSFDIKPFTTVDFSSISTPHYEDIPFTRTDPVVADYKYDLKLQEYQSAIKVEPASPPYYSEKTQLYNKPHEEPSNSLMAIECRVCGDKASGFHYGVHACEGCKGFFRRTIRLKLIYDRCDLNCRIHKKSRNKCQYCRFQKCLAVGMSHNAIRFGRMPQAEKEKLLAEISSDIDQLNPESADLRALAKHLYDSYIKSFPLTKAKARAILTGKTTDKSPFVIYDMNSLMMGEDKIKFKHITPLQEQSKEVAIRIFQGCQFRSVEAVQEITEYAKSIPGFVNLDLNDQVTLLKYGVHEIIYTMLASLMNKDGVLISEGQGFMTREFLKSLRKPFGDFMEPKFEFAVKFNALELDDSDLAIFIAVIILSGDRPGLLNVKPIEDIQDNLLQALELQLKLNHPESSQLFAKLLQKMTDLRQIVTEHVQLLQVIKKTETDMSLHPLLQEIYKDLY

CD34+ cells [2] = experiment: Cytokine secretion by CD34+ cells (Bio-Plex cytokine bead array); assay type: cell-based, human; conditions: LPA 100 μM; hypoxia, serum free, 24 h
Description: In an embodiment, cell culture supernatants were evaluated for the presence and concentrations of cytokines using a Bio-Plex Pro Human Cytokine 17-Plex Panel Assay (preferably, Bio-Rad, Hercules, Calif., USA), according to manufacturer's instructions, in a Bio-Plex 200 System (Bio-Rad, www.bio-rad.com). The human Group I 17-Plex Panel consisted of the following analytes: interleukin-1β (IL-1β), IL-2, IL-4, IL-5, IL-6, IL-7, IL-8; IL-10, IL-12(p70), IL-13, IL-17, granulocyte colony-stimulating factor (G-CSF), granulocyte/macrophage colony-stimulating factor (GM-CSF), interferon-γ (IFN-γ), monocyte chemotactic protein (monocyte chemotactic activating factor [MCP-1 (MCAF)], macrophage inflammatory protein-β (MIP-1 β) and tumor necrosis factor-α (TNF-α). Supernatant media samples were collected, centrifuged to remove precipitates and frozen. A standard range of 0.2 to 3,200 pg/mL was used. Samples and controls were run in triplicate, standards and blanks in duplicate.
To determine the effect of LPA in the release of signaling cytokines and growth factors by CD34+ cells, was used a cytokine bead array. The cells were incubated in serum free medium X-Vivo for 24 h under normoxia or hypoxia conditions, either in the presence or absence of LPA (100 μM). Untreated CD34+ cells in normoxia express high levels (>100 pg/mL) of IL-8 and MIP-1b, medium levels (between 100 and 1 pg/mL) of IL-6, TNF-α and GM-CSF, and low levels (<1 pg/mL) of IL-1β, IL-4 and IL-17 (FIG. 5C).

CD34+ cells [3] = experiment: CD34+ cell self-renewal/differentiation by FACS; assay type: cell-based, human; conditions: LPA-treated; after 1 day of hypoxia
Description: In an embodiment, multicolor analysis for progenitor and stem cell phenotyping was performed on a FACS Calibur cytometer (preferably, Becton Dickinson). Cells were stained for 1 h with APC or pacific blue antihuman CD45 (preferably, e-Bioscience), FITC anti-mouse CD45 (preferably, -Bioscience), PeCy7 anti-human CD33 (preferably, BD Bioscience), PE anti-human CD11b (preferably, BD Bioscience), FITC anti-human CD19 (preferably, BD Bioscience), PeCy7 anti-human CD3 (preferably, BD Bioscience), PE anti-human Glycophorin A (preferably, BD Bioscience), FITC anti-human CD41 (preferably, e-bioscience), and PeCy7 anti-human CD56 (preferably, BD Bioscience), washed with staining media and analyzed.
To examine the effect of LPA in CD34+ cell self-renewal/differentiation, untreated and LPA-treated CD34+ cells were cultured in X-vivo medium in hypoxia conditions for 1 day followed or not by 6 days in normoxia and finally characterized by FACS. After 1 day of hypoxia, both untreated or LPA-treated CD34+ cells started to differentiate into mast cells (between 14 and 17%) and neutrophils (between 5 and 8%) (FIG. 3B). Only 78% and 72% of the untreated or LPA-treated CD34+ cells express CD34 marker. CD34 expression is higher in cells that have been exposed to hypoxia than in normoxia conditions since only 6% of the cells cultured in normoxia conditions for 24 h express CD34 marker. […]

Substance: lysophosphatidic acid [LPA]
- affinity for PPARγ [1]: high affinity
- secretion of GM-CSF (CD34+ cells [2]): ~1 pg/mL
- secretion of IL-1 (CD34+ cells [2]): ~2 pg/mL
- secretion of IL-4 (CD34+ cells [2]): ~2.7 pg/mL
- secretion of IL-6 (CD34+ cells [2]): ~2 pg/mL
- secretion of IL-8 (CD34+ cells [2]): ~17,000 pg/mL
- secretion of TNF-α (CD34+ cells [2]): ~15 pg/mL
- cells expressing CD34 marker (CD34+ cells [3]): 72%
